Molecular target: Complement factor D (Homo sapiens, UniProt P00746)
Assay: Inhibition of recombinant human factor D expressed in Escherichia coli using Z-Lys-thiobenzyl and 2,4-dinitrobenzenesulfonyl-fluoresceine as substrate preincubated for 1 hr followed by substrate addition by spectrofluorimetric analysis

Chain of Complement factor D (P00746 whole entry): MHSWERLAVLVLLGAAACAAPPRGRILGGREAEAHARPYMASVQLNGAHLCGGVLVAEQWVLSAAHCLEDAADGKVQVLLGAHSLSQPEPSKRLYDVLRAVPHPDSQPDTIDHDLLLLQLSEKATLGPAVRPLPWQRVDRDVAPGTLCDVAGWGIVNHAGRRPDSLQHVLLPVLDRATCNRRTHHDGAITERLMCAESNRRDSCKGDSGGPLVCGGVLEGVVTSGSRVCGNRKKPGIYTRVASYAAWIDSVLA

IC50: 2 nM
SMILES: NC(=O)c1nn(CC(=O)N2[C@@H]3C[C@@H]3C[C@H]2C(=O)Nc2cccc(Br)n2)c2cnc(CF)cc12
